ChEMBL document CHEMBL5352428, “Covalent inhibitors of bacterial peptidoglycan biosynthesis enzyme MurA with chloroacetamide warhead” (Eur J Med Chem, 2022)
Activity calls are given as the source filed them. The calls are words filed in the database; no cut-off is given here.

Legend:
[1] = target: UDP-N-acetylglucosamine 1-carboxyvinyltransferase (Escherichia coli K-12, UniProt P0A749); assay: (§1) Inhibition of recombinant Escherichia coli MurA expressed in Escherichia coli NiCo21 using UNAG and PEP as substrate preincubated for 30 mins in presence of UNAG followed by PEP substrate addition and measured after 15 mins by malachite green based colorimetric assay
[2] = Thiol reactivity of compound at pH 7.4 buffer at 100 uM and measured for 4 hrs every 5 mins in presence of DTNB and TCEP by microplate reader analysis; format: physicochemical; conditions: pH 7.4, 4 h
[3] = target: UDP-N-acetylglucosamine 1-carboxyvinyltransferase (Escherichia coli K-12) (UniProt P0A749); assay: Irreversible inhibition of recombinant Escherichia coli MurA expressed in Escherichia coli NiCo21 using UNAG and PEP as substrate assessed as second-order rate constant for enzyme inactivation, ratio of Kinact/Ki preincubated for 30 mins in presence of UNAG followed by 100 fold dilution and PEP substrate addition and measured after 15 mins by malachite green based colorimetric assay; conditions: time 45.0 min
[4] = system: Staphylococcus aureus; assay: Antibacterial activity against Staphylococcus aureus ATCC 29213 assessed as bacterial growth inhibition at <= 128 ug/ml incubated for 24 hrs by broth dilution method; format: functional, organism-based; conditions: dose <= 128.0 µg/ml
[5] = system: Escherichia coli; assay: Antibacterial activity against Escherichia coli ATCC 25922 assessed as bacterial growth inhibition at <=128 ug/ml incubated for 24 hrs by broth dilution method; format: functional, organism-based; conditions: dose <= 128.0 µg/ml
[6] = target: UDP-N-acetylglucosamine 1-carboxyvinyltransferase (Escherichia coli K-12) (UniProt P0A749); assay: as §1, with “coli NiCo21 assessed as residual activity using UNAG” for “coli NiCo21 using UNAG”, “as substrate at 500 uM preincubated for” for “as substrate preincubated for”; conditions: time 45.0 min
[7] = Thiol reactivity of compound at pH 7.4 buffer assessed as fold decrease by measuring second order rate constant at 100 uM and measured for 4 hrs every 5 mins in presence of DTNB and TCEP by microplate reader analysis relative to Iodoacetamide; format: physicochemical; conditions: pH 7.4, 4 h
[8] = target: UDP-N-acetylglucosamine 1-carboxyvinyltransferase (Escherichia coli K-12) (UniProt P0A749); assay: Irreversible inhibition of recombinant Escherichia coli MurA expressed in Escherichia coli NiCo21 assessed as residual activity using UNAG and PEP as substrate at 1 mM preincubated for 30 mins in presence of UNAG followed by PEP substrate addition and measured after 15 mins by malachite green based colorimetric assay; conditions: time 45.0 min

Sequence of UDP-N-acetylglucosamine 1-carboxyvinyltransferase (P0A749 whole entry): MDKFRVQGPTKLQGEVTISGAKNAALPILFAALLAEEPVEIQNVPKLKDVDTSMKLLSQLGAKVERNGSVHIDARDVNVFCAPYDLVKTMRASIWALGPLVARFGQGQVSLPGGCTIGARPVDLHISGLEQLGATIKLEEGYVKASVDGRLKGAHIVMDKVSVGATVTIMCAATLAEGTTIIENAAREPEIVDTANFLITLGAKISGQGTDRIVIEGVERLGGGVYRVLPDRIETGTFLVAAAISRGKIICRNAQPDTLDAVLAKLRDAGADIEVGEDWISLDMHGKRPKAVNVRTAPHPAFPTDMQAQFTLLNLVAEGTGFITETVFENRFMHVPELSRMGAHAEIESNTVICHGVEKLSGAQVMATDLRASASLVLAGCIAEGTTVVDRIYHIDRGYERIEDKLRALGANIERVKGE
Sequence of UDP-N-acetylglucosamine 1-carboxyvinyltransferase (Escherichia coli K-12) (P0A749 whole entry): as above

Structure (SMILES)	IC50 [1] [µM]	Drug metabolism [2]	Ratio [3]	Activity [6] [%]	fold change (FC) [7]	Activity [8] [%]	Activity [4]	Activity [5]
O=C(CCl)Nc1ccncc1		Metabolite_Detected		77			inactive	inactive
Cc1cc(NC(=O)CCl)on1		Metabolite_Detected		71			inactive	inactive
CCCCOc1ccc(NC(=O)CCl)cc1		Metabolite_Detected		100			inactive	inactive
O=C(CCl)N1CCCC(OP(=O)(Oc2ccccc2)Oc2ccccc2)C1 (stereo not drawn)	543	Metabolite_Detected					inactive	inactive
O=C(CCl)Nc1ccc(C2CCCCC2)cc1		Metabolite_Detected		54	167		inactive	inactive
CC1CCCN(C(=O)CCl)C1 (stereo not drawn)		Metabolite_Detected		80			inactive	inactive
COC(=O)c1ccc(NC(=O)CCl)o1		Metabolite_Detected		75			inactive	inactive
O=C(CCl)N1CCN(CC(=O)N2CCCCC2)CC1		Metabolite_Detected		81			inactive	inactive
O=C(CCl)N1CCCCC1		Metabolite_Detected		79			inactive	inactive
O=C(CCl)Nc1ccc(-c2nnn[nH]2)cc1		Metabolite_Detected		100			inactive	inactive
CCOC(=O)N1CCN(C(=O)CCl)CC1		Metabolite_Detected		95			inactive	inactive
COc1cc(NC(=O)CCl)cc(OC)c1OC		Metabolite_Detected		92			inactive	inactive
CC(C)CNC(=O)CCl		Metabolite_Notdetected		90			inactive	inactive
O=C(CCl)NC1CCC2CCCCC2C1 (stereo not drawn)		Metabolite_Notdetected		79			inactive	inactive
O=C(CCl)Nc1ccc(C(F)(F)F)cc1		Metabolite_Detected		77			inactive	inactive
O=C(CCl)N1CCC(COP(=O)(Oc2ccccc2)Oc2ccccc2)C1 (stereo not drawn)	311	Metabolite_Detected					inactive	inactive
O=C(CCl)Nc1ccc(-c2ncco2)cc1		Metabolite_Detected		71			inactive	inactive
O=C(CCl)NC1CCCC(OP(=O)(Oc2ccccc2)Oc2ccccc2)C1 (stereo not drawn)		Metabolite_Detected		89			inactive	inactive
CC(=O)NC1CCCC2CCCCC21 (stereo not drawn)						96.1		
NC1CCN(C(=O)CCl)CC1		Metabolite_Detected		82			inactive	inactive
O=C(CCl)Nc1cccc2ccccc12		Metabolite_Detected		81			inactive	inactive
O=C(CCl)Nc1ccc2ccccc2c1		Metabolite_Detected		83			inactive	inactive
O=C(CCl)N1CCOCC1		Metabolite_Detected		87			inactive	inactive
O=C(CCl)NC12CC3CC(CC(C3)C1)C2		Metabolite_Notdetected		77			inactive	inactive
O=C(CCl)N1CCCc2ccccc21		Metabolite_Detected		73			inactive	inactive
N#Cc1ccc(NC(=O)CCl)cc1		Metabolite_Detected		89			inactive	inactive
O=C(CCl)Nc1ccc2nsnc2c1	287	Metabolite_Detected	4.84 10^-4/µM/min				inactive	inactive
O=C(CCl)NC1CCCCC1		Metabolite_Notdetected		74			inactive	inactive
O=C(CCl)Nc1nccs1		Metabolite_Detected		55	4		inactive	inactive

Continued, in another order:

IC50 [1] [µM]	Drug metabolism [2]	Ratio [3]	Activity [6] [%]	fold change (FC) [7]	Activity [8] [%]	Structure (SMILES)	Activity [4]	Activity [5]
137	Metabolite_Detected	2.79 10^-4/µM/min				Cc1ccc(S(=O)(=O)NC(=O)CC2CCN(C(=O)CCl)CC2)cc1	inactive	inactive
	Metabolite_Detected		70			O=C(CCl)N1CCc2ccccc2C1	inactive	inactive
	Metabolite_Detected		47			O=C(CCl)N1CCC(COP(=O)(O)O)C1 (stereo not drawn)	inactive	inactive
172	Metabolite_Detected					COc1ccc2nc(SC3CCN(C(=O)CCl)CC3)[nH]c2n1	inactive	inactive
	Metabolite_Detected		61			CC(C)(C)OC(=O)NC1CCN(C(=O)CCl)CC1	inactive	inactive
	Metabolite_Detected		75			O=C(O)C1CCCN(C(=O)CCl)C1 (stereo not drawn)	inactive	inactive
	Metabolite_Detected		77			COc1ccc(N2CCN(C(=O)CCl)CC2)cc1	inactive	inactive
	Metabolite_Detected		71			O=C(CCl)N1CCC(c2ccccc2)CC1	inactive	inactive
162	Metabolite_Detected					O=C(CCl)N1CCC(Sc2nnc(-c3ccccc3)o2)CC1	inactive	inactive
			90			O=C(CCl)N1CCN(c2ccccc2)CC1	inactive	inactive
240	Metabolite_Detected	4.16 10^-4/µM/min				CS(=O)(=O)NC1CCN(C(=O)CCl)CC1	inactive	inactive
	Metabolite_Detected		95			O=C(O)C1CCN(C(=O)CCl)CC1	inactive	inactive
263	Metabolite_Detected	2.99 10^-4/µM/min		2		O=C(CCl)N1CCC(N2CCC(Br)C2=O)C1 (stereo not drawn)	inactive	inactive
	Metabolite_Detected		100			CCOC(=O)C1CCCN(C(=O)CCl)C1 (stereo not drawn)	inactive	inactive
	Metabolite_Detected		99			O=C(CCl)N1CCN(Cc2ccc3c(c2)OCO3)CC1	inactive	inactive
	Metabolite_Detected		100			CCOC(=O)C1CCN(C(=O)CCl)CC1	inactive	inactive
195	Metabolite_Detected	7.13 10^-3/µM/min				O=C(CCl)N1CCC(Sc2nccs2)CC1	inactive	inactive
